Measured values published in publication PMC8596838, “Xylose‐Configured Cyclophellitols as Selective Inhibitors for Glucocerebrosidase” (Chembiochem, 2021).
Where two headings read alike, the source gives them in different places.

Experiments:
GBA = GBA (Danio rerio, UniProt E7EZM1); test: In vivo inhibition in zebrafish larvae, read out by cABPP with ABP 10, GBA; set-up: species or system zebrafish (Danio rerio); conditions: larvae exposed to 5 dpf, inhibitor in the medium, cABPP quantification
GBA, sequence (E7EZM1 entry or part of it): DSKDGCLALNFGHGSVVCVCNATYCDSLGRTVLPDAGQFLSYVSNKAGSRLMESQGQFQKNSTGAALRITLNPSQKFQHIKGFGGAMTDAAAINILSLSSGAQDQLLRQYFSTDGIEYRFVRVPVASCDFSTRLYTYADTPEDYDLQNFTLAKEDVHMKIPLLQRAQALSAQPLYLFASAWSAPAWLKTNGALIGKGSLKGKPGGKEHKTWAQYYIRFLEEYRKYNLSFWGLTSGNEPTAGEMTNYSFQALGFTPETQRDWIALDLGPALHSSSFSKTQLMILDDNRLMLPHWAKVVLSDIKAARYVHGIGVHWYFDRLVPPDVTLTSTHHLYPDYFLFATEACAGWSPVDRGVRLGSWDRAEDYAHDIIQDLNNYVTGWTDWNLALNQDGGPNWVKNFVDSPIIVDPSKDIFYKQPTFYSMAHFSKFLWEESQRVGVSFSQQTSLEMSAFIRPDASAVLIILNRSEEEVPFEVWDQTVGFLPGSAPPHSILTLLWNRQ
Description: (§1) We further investigated the affinity of 1 and 2 towards β‐D‐glucosidases in living animals using zebrafish (Danio rerio) embryos, which express both GBA and GBA2. Following exposure for 5 days, fish larvae were sacrificed and lysed, and cABPP with ABP 10 was used to detect residual active β‐D‐glucosidase molecules in the lysates and for IC50 determination. […] Aziridine compound 2 is also selective against GBA over GBA2, albeit with a narrower selectivity window (Figure 6A–C). […]
(§2) Figure 6 In vivo inhibitory effect of β‐D‐xylo‐configured compounds on β‐glucosidases in zebrafish (Danio rerio) larvae. […] Fluorescently labeled proteins were visualized after SDS‐PAGE, only GBA and GBA2 were assessed in zebrafish larvae model. (B) Apparent IC50 values towards β‐glucosidases (GBA and GBA2) were determined by the fluorescence quantification based on cABPP results. […] (D) GlcSph levels in zebrafish larvae were determined as described in experiment section, n=2 replicates.
ABP labeling procedure: Glycosidases were labeled with excess fluorescent ABPs at optimum conditions. […] ABP‐emitted fluorescence was quantified using ImageQuant software (GE Healthcare, Chicago, IL, USA) and curve‐fitted using Prism 8.0 (GraphPad Software). After fluorescence scanning, SDS‐PAGE gels were stained for total protein with Coomassie G250 and scanned on a ChemiDoc MP imager (Bio‐Rad, Hercules, CA, USA).[25] […]

GBA2 = GBA2 (Danio rerio, UniProt E7F5W0); test: In vivo inhibition in zebrafish larvae, read out by cABPP with ABP 10, GBA2; set-up: species or system zebrafish (Danio rerio)
GBA2, sequence (E7F5W0 entry or part of it): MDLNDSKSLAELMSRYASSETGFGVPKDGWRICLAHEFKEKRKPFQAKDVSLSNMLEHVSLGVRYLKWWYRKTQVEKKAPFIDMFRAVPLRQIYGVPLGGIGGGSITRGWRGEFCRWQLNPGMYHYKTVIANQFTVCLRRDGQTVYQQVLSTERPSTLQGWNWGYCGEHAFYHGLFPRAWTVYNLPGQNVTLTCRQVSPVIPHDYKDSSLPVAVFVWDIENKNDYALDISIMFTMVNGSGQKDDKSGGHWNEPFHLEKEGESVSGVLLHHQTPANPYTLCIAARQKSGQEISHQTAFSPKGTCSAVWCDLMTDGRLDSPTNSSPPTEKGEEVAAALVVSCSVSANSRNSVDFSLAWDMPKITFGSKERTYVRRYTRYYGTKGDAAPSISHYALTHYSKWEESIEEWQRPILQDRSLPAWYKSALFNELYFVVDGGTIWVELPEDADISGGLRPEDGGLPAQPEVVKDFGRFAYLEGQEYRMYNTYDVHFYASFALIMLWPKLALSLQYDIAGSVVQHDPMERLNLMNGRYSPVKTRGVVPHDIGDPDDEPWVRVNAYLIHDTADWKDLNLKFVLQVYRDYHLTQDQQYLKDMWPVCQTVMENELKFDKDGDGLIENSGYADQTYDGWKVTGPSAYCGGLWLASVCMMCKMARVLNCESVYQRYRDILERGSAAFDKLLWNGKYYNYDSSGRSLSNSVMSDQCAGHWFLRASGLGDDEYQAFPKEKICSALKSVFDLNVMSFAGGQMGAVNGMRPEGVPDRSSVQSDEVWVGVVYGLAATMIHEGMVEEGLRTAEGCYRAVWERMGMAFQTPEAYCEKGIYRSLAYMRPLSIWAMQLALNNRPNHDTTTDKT
Description: We further investigated the affinity of 1 and 2 towards β‐D‐glucosidases in living animals using zebrafish (Danio rerio) embryos, which express both GBA and GBA2. Following exposure for 5 days, fish larvae were sacrificed and lysed, and cABPP with ABP 10 was used to detect residual active β‐D‐glucosidase molecules in the lysates and for IC50 determination. […] Aziridine compound 2 is also selective against GBA over GBA2, albeit with a narrower selectivity window (Figure 6A–C). We noted that the apparent IC50 in zebrafish embryo is much […] than the observed in intact cells despite the longer incubation time, which could be a result of poorer bioavailability of the cyclophellitol‐related structures in whole animal, as noted earlier by us.[36]
Figure 6 In vivo inhibitory effect of β‐D‐xylo‐configured compounds on β‐glucosidases in zebrafish (Danio rerio) larvae. (A) Larvae were exposed to 5 dpf with the indicated inhibitor 1 or 2 in the medium. Larvae were lysed and incubated with fluorescent ABP 10. Fluorescently labeled proteins were visualized after SDS‐PAGE, only GBA and GBA2 were assessed in zebrafish larvae model. (B) Apparent IC50 values towards β‐glucosidases (GBA and GBA2) were determined by the fluorescence quantification based on cABPP results. (C) In vivo inhibition curves. (D) GlcSph levels in zebrafish larvae were determined as described in experiment section, n=2 replicates.
ABP labeling procedure: Glycosidases were labeled with excess fluorescent ABPs at optimum conditions. ABP labeling was performed at 37 °C for 30 min for all materials (if not otherwise stated), in a total sample volume of 20–40 μL and 0.5–1 % DMSO concentration. GBA was labeled with 200 nM ABP 9 (pH 5.2, 0.1 % (v/v) Triton‐100, 0.2 % (w/v) sodium taurocholate), or labeled together with GBA2 using 200 nM β‐D‐glucose‐configured aziridine ABP 10 at pH 5.8, or labeling together with GBA2 and GBA3 using 200 nM β‐D‐glucose‐configured aziridine ABP 10 at pH 6.0. After ABP incubation, proteins were denatured by boiling the samples with 5× Laemmli buffer (50 % (v/v) 1 M Tris‐HCl, pH 6.8, 50 % (v/v) 100 % glycerol, 10 % (w/v) DTT, 10 % (w/v) SDS, 0.01 % (w/v) bromophenol blue) for 5 min at 98 °C, and separated by electrophoresis on 10 % (w/v) SDS‐PAGE gels running continuously at 90 V. Wet slab‐gels were scanned on fluorescence using the Typhoon FLA 9500 (GE Healthcare) at λEX 473 nm and λEM≥510 nm for green fluorescent ABP 8; and at λEX 635 nm and λEM≥665 nm for ABP 6, 9 and 10. ABP‐emitted fluorescence was quantified using ImageQuant software (GE Healthcare, Chicago, IL, USA) and curve‐fitted using Prism 8.0 (GraphPad Software). After fluorescence scanning, SDS‐PAGE gels were stained for total protein with Coomassie G250 and scanned on a ChemiDoc MP imager (Bio‐Rad, Hercules, CA, USA).[25]
Inhibition of enzymes in zebrafish larvae: Experiments were performed with 5 dpf larvae. For inhibitor treatment, a single fertilized embryo was seeded in a well of a 96‐wells plate, and exposed to 200 μL corresponding inhibitor for 115 hours at 28.5 °C. Per condition, n=24 embryos were used. At 115 hours (5 dpf), larvae were collected, rinsed three times with egg water, fully aspirated, snap‐frozen in liquid nitrogen and stored at −80 °C until homogenization in 96 μL 25 mM potassium phosphate buffer per 24 individuals. Lysis was conducted by sonication with a Polytron PT 1300D sonicator (Kinematica, Luzern, Switzerland) on ice at 20 % power for three seconds, and repeated three times. […]

[1] = test system: glucosylsphingosine (GlcSph); test: GlcSph levels in inhibitor treated zebrafish larvae (LC-MS); assay type: in vivo, zebrafish (Danio rerio); conditions: treated 103 hours from 8 hpf, n=2
Description: as §1, §2
Sphingolipid extraction and analysis by mass spectrometry in inhibitor treated zebrafish larvae: Zebrafish embryos at 8 hours post fertilization (hpf) were seeded in 96‐well plates (1 fish embryo/ well, 200 μL egg water/well) and treated with corresponding inhibitors in different concentration for 103 hours at 28.5 °C. […] Lipids were extracted and measured according to methods described previously.[48] […]

[2] = IC50 ratio, zebrafish larvae 5 dpf

effect on ABP labelling of GBA2 in zebrafish at 150 μM (GBA2; 150 μM, exposure for 5 days) | IC50 (GBA2; larvae exposed to 5 dpf, inhibitor in the medium, cABPP quantification; read-out: Zebrafish larvae IC50 GBA2) [µM] | Compound | IC50 (GBA) [µM] | GBA2/GBA ratio, zebrafish larvae (GBA2; [2]) | GlcSph levels in zebrafish embryos [1] | IC50 (GBA2; read-out: Zebrafish larvae IC50 GBA2; larvae exposed to 5 dpf, inhibitor in the medium, cABPP quantification) [µM]
without targeting GBA2 | > 150 | O[C@@H]1[C@@H](O)[C@H](O)C[C@H]2O[C@@H]12 [compound 1, xylo‐cyclophellitol] | 3.01 | > 50 | increased levels of GlcSph | –
– | – | O[C@@H]1[C@@H](O)[C@H](O)C[C@H]2N[C@@H]12 [compound 2, β‐D‐xylo‐Cyclophellitol aziridine] | 6.99 | 21 | increased levels of GlcSph | 150
